The record followed here is patent US11897865B2, “ABHD12 inhibitors and methods of making and using same” (THE SCRIPPS RESEARCH INSTITUTE, priority 2018, dated 2024).

In test [1] the target is T1, ABHD12 (Homo sapiens, UniProt Q8N2K0).
T1 construct: expressed in transfected cells; host or cells: HEK293T
T1 sequence (Q8N2K0 1-398): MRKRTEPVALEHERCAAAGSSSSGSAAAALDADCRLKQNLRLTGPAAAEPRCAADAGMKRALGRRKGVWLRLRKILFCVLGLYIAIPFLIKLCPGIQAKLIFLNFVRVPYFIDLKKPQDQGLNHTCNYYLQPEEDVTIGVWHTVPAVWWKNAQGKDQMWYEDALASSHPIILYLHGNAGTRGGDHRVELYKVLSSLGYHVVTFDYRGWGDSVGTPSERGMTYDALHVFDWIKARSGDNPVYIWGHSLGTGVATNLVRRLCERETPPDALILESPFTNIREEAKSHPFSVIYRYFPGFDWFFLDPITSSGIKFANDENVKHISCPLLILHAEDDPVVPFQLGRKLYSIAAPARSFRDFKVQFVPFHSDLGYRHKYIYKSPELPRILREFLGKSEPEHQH
Nature of the test: Lyso-PS hydrolysis assay (substrate-based), ABHD12-overexpressing HEK293T membrane lysate. In kind it is biochemical. The note with it: 17:1 lyso-PS substrate; ABHD12-overexpressed HEK lysate; read-out: IC50 (Substrate-based assay_ABHD12-overexpressed HEK lysate). Here is the method:
Lyso-PS Hydrolysis Assay:
The lyso-PS lipase activity of ABHD12 was determined as previously described (Blankman, J. L., Long, J. Z., Trauger, S. A., Siuzdak, G. & Cravatt, B. F. ABHD12 controls brain lysophosphatidylserine pathways that are deregulated in a murine model of the neurodegenerative disease PHARC. Proc. Natl. Acad. Sci. U. S. A. 110, 1500-1505, doi:10.1073/pnas.1217121110 (2013)) with some minor modifications. The proteome concentrations were adjusted to 0.25 mg/mL (ABHD12-overexpressing HEK293T membrane) or 0.5 mg/mL (mouse brain membrane) in Dulbecco's phosphate-buffered saline (DPBS) (80 μL/reaction). 20 μL of 500 μM 17:1 lyso-PS in DPBS was added to each reaction (100 μM final concentration) and incubated at 37° C. After 30 min, the reaction was quenched with 400 μL of 2:1 CHCl3/MeOH (v/v) with 1 nmol 15:0 FFA as an internal standard. The mixture was vortexed and centrifuged at 1,400× g to separate the aqueous and organic phase. The organic phase was analyzed by LC-MS (1200 LC/MSD, Agilent Technologies). The separation of the analyte was achieved using a 50 mm×4.6 mm 5 μm Gemini C18 column (Phenomenex) coupled to a guard column (Gemini: C18: 4×3 mm). The LC solvents were as follows: buffer A, […] (95:5, v/v) with 0.1% NH4OH (v/v); and buffer B, iPrOH:MeOH:H2O (60:3 5:5, v/v/v) with 0.1% NH4OH (v/v). The LC method consisted of 0.1 mL/min 20% buffer B for 1.0 min, 0.4 ml/min isocratic mode of 100% buffer B over 7 min and equilibration with 0.5 mL/min 100% buffer A for 3 min. The MS analyses were performed using an electrospray ionization source (ESI) in negative ion mode to measure product formation. MS data were acquired in selected ion monitoring mode at m/z 267.20 for 17:1 FFA and m/z 241.20 for 15:0 FFA.

In test [2] the target is T2, ABHD12 (Mus musculus, UniProt Q99LR1).
T2 construct: from tissue; host or cells: brain membrane proteome
T2 sequence (Q99LR1 1-398): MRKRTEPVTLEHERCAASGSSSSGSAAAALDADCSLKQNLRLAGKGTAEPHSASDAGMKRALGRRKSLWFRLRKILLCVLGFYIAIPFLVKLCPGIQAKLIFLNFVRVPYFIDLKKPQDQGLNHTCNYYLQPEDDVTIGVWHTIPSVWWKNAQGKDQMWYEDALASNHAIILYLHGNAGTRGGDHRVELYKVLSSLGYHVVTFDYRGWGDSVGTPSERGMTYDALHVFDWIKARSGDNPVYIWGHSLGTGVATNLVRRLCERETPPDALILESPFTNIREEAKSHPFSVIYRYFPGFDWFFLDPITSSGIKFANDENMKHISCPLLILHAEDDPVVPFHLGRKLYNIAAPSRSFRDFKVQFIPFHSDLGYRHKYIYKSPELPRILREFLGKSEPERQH
Nature of the test: Gel-based competitive ABPP, JJH350 probe vs brain membrane proteome. The note with it: for inhibition at 10 µM: 10 μM compound, read-out: % Inhibition @ 10 μM (ABPP gel_JJH350 probe vs brain mem); for IC50: read-out: IC50 (ABPP gel_JJH350 probe vs brain mem). In kind it is biochemical. As for the experimental part:
Gel-Based Competitive ABPP for In Vitro Inhibitor Treatment of Proteomes:
Gel-based ABPP assays were performed as previously reported (Bachovchin, D. A. et al. Superfamily-wide portrait of serine hydrolase inhibition achieved by library-versus-library screening. Proc. Natl. Acad. Sci. U. S. A. 2010, 107, 20941-20946). Cell or tissue proteomes (50 μL, 1 mg/mL) were treated with either FP-Rh (1 μM final concentration) or JJH350 (2 μM final concentration) for 45 min at 37° C. For FP-Rh labeled samples, the reactions were quenched by adding 20 μL of 4× SDS-PAGE loading buffer. The 30 μL of the quenched samples were loaded on gel for analysis. For (S)-1,3-dioxo-7-(4-phenoxybenzoyl)hexahydroimidazo[1,5-a]pyrazin-2(3H)-yl 4-(4-(prop-2-yn-1-yloxy)phenyl)piperazine-1-carboxylate (JJH350)-labeled samples, copper-catalyzed azide-alkyne cycloaddition (CuAAC) was used for visualizing the labeled proteins following the reported protocol. Briefly, rhodamine-PEG3-N3 (1 μL/reaction, 1.25 mM in DMSO), CuSO4 (1 μL/reaction, 50 mM in H2O), TBTA (3 μL/reaction, 1.7 mM in DMSO/t-BuOH [1:4, v/v]) and tris(2-carboxyethyi)phosphine (TCEP) (1 μL/reaction, 50 mM in H2O, freshly prepared) were premixed. 6 μL of this click reagent mixture was immediately added to each JJH350-labeled samples (50 μL, 1 mg/mL) and incubated for 1 h at room temperature. The reactions were quenched by adding 20 μL of 4× SDS-PAGE loading buffer. The 40 μL of the quenched samples were loaded on a gel for analysis.
After separation by SDS-PAGE (10% acrylamide), samples were visualized by in-gel fluorescence scanning using the ChemiDoc MP system (Bio-Rad). Band intensities were quantified using the Image Lab (5.2.1) software (Bio-Rad).

Take `FC(F)(F)c1cnc(N2CCC(NC(=S)Nc3cccnc3)CC2)c(Cl)c1` [Example 1, 1-(1-(3-Chloro-5-(trifluoromethyl)pyridin-2-yl)piperidin-4-yl)-3-(pyridin-3-yl)thiourea]: at ABHD12 [1], the IC50 – broadly, the concentration that gives 50% inhibition – was 1 to 25 µM. At ABHD12 [2], the inhibition (commonly the percentage by which the read-out fell short of the control) at 10 µM was ≥ 75% and the IC50 lay in the range of 1 to 25 µM.

`FC(F)(F)Oc1ccc(Oc2ccnc(N3CCC(NC(=S)Nc4cccnc4)CC3)c2)cc1` [Example 2, 1-(Pyridin-3-yl)-3-(1-(4-(4-(trifluoromethoxy)phenoxy)pyridin-2-yl)piperidin-4-yl)thiourea]: at ABHD12 [1], the IC50 fell in the range of 0.1 to 1 µM. In addition, at ABHD12 [2], the inhibition at 10 µM is ≥ 75% and the IC50 lay within 0.1 to 1 µM.

As to `FC(F)(F)Oc1ccc(Oc2ccnc(N3CCC(NC(=S)Nc4cccnc4)CC3)c2Cl)cc1` [Example 3, 1-(1-(3-chloro-4-(4-(trifluoromethoxy)phenoxy)pyridin-2-yl)piperidin-4-yl)-3-(pyridin-3-yl)thiourea], the IC50 at ABHD12 [1] and on ABHD12 [2] was ≤ 0.1 µM in each case. At ABHD12 [2], the inhibition at 10 µM is ≥ 75%.

As to `FC(F)(F)Oc1ccc(Oc2ccnc(N3CCC(NC(=S)Nc4cccnc4)CC3)c2Cl)c(Cl)c1` [Example 4, 1-(1-(3-Chloro-4-(2-chloro-4-(trifluoromethoxy)phenoxy)pyridin-2-yl)piperidin-4-yl)-3-(pyridin-3-yl)thiourea], the IC50 on ABHD12 [1] and on ABHD12 [2] was ≤ 0.1 µM throughout.

`C#Cc1ccc(Oc2ccnc(N3CCC(NC(=S)Nc4cccnc4)CC3)c2Cl)c(Cl)c1` [Example 5, 1-(1-(3-Chloro-4-(2-chloro-4-ethynylphenoxy)pyridin-2-yl)piperidin-4-yl)-3-(pyridin-3-yl)thiourea]: the IC50 at ABHD12 [1] is ≤ 0.1 µM.

Consider `FC(F)(F)c1ccc(N2CCC(NC(=S)Nc3cccnc3)CC2)nc1` [Example 14, 1-(Pyridin-3-yl)-3-(1-(5-(trifluoromethyl)pyridin-2-yl)piperidin-4-yl)thiourea], for which the IC50 at ABHD12 [1] and on ABHD12 [2] was 1 to 25 µM in each case. Also, on ABHD12 [2], the inhibition at 10 µM was ≥ 75%.

Consider `FC(F)(F)c1ccnc(N2CCC(NC(=S)Nc3cccnc3)CC2)c1` [Example 15, 1-(Pyridin-3-yl)-3-(1-(4-(trifluoromethyl)pyridin-2-yl)piperidin-4-yl)thiourea], for which the concentration for half-maximal inhibition (IC50) is 1 to 25 µM at ABHD12 [1] and 0.1 to 1 µM on ABHD12 [2]. Further, the inhibition at 10 µM at ABHD12 [2] is ≥ 75%.

Take `FC(F)(F)c1cccnc1N1CCC(NC(=S)Nc2cccnc2)CC1` [Example 16, 1-(Pyridin-3-yl)-3-(1-(3-(trifluoromethyl)pyridin-2-yl)piperidin-4-yl)thiourea]: the IC50 on ABHD12 [1] was 1 to 25 µM. Besides, at ABHD12 [2], the inhibition at 10 µM is 25 to 50% and the half-maximal inhibitory concentration (IC50) fell in the range of 1 to 25 µM.

On to `FC(F)(F)c1cc(N2CCC(NC(=S)Nc3cccnc3)CC2)ncc1Cl` [Example 25, 1-(1-(5-Chloro-4-(trifluoromethyl)pyridin-2-yl)piperidin-4-yl)-3-(pyridin-3-yl)thiourea], for which the IC50 at ABHD12 [1] and on ABHD12 [2] was 1 to 25 µM in each case. The inhibition at 10 µM on ABHD12 [2] is ≥ 75%.

In the case of `FC(F)(F)c1ccnc(N2CCC(NC(=S)Nc3cccnc3)CC2)c1Cl` [Example 26, 1-(1-(3-Chloro-4-(trifluoromethyl)pyridin-2-yl)piperidin-4-yl)-3-(pyridin-3-yl)thiourea], at ABHD12 [1], the IC50 is 0.1 to 1 µM. Also, on ABHD12 [2], the inhibition at 10 µM is ≥ 75% and the IC50 lay in the range of 0.1 to 1 µM.

In the case of `FC(F)(F)c1cc(Cl)nc(N2CCC(NC(=S)Nc3cccnc3)CC2)c1` [Example 27, 1-(1-(6-Chloro-4-(trifluoromethyl)pyridin-2-yl)piperidin-4-yl)-3-(pyridin-3-yl)thiourea], the IC50 at ABHD12 [1] was 0.1 to 1 µM. In addition, on ABHD12 [2], the inhibition at 10 µM is ≥ 75% and the IC50 fell in the range of 0.1 to 1 µM.

As for `S=C(Nc1cccnc1)NC1CCN(c2cc(Cl)ccn2)CC1` [Example 28, 1-(1-(4-Chloropyridin-2-yl)piperidin-4-yl)-3-(pyridin-3-yl)thiourea], on ABHD12 [1], the IC50 fell in the range of 1 to 25 µM. Further, on ABHD12 [2], the inhibition at 10 µM was ≥ 75% and the IC50 was in the range of 1 to 25 µM.

In the case of `FC(F)(F)c1cccc(N2CCC(NC(=S)Nc3cccnc3)CC2)n1` [Example 29, 1-(Pyridin-3-yl)-3-(1-(6-(trifluoromethyl)pyridin-2-yl)piperidin-4-yl)thiourea], the IC50 at ABHD12 [1] and on ABHD12 [2] was 0.1 to 1 µM in each case. At ABHD12 [2], the inhibition at 10 µM is ≥ 75%.

On to `S=C(Nc1cccnc1)NC1CCN(c2cc(Oc3ccccc3)ccn2)CC1` [Example 40, 1-(1-(4-Phenoxypyridin-2-yl)piperidin-4-yl)-3-(pyridin-3-yl)thiourea], for which the IC50 at ABHD12 [1] and at ABHD12 [2] was 1 to 25 µM throughout. The inhibition at 10 µM on ABHD12 [2] was ≥ 75%.

Regarding `Fc1ccc(Oc2ccnc(N3CCC(NC(=S)Nc4cccnc4)CC3)c2)cc1` [Example 41, 1-(1-(4-(4-Fluorophenoxy)pyridin-2-yl)piperidin-4-yl)-3-(pyridin-3-yl)thiourea], at ABHD12 [1], the IC50 was 1 to 25 µM. Also, at ABHD12 [2], the inhibition at 10 µM was ≥ 75% and the IC50 was in the range of 1 to 25 µM.

For `FC(F)(F)c1cnc(NCCCCNC(=S)Nc2cccnc2)c(Cl)c1` [Example 83, 1-(4-((3-Chloro-5-(trifluoromethyl)pyridin-2-yl)amino)butyl)-3-(pyridin-3-yl)thiourea], the inhibition at 10 µM at ABHD12 [2] fell in the range of 25 to 50%.

Consider `FC(F)(F)c1cnc(NCCCCCCNC(=S)Nc2cccnc2)c(Cl)c1` [Example 84, 1-(6-((3-Chloro-5-(trifluoromethyl)pyridin-2-yl)amino)hexyl)-3-(pyridin-3-yl)thiourea], for which, on ABHD12 [2], the inhibition at 10 µM was 50 to 75%.

With `FC(F)(F)c1cnc(N2[C@@H]3CC[C@H]2CC(NC(=S)Nc2cccnc2)C3)c(Cl)c1` (stereo partly drawn) [Example 85, 1-((1R,5S)-8-(3-Chloro-5-(trifluoromethyl)pyridin-2-yl)-8-azabicyclo[3.2.1]octan-3-yl)-3-(pyridin-3-yl)thiourea], the inhibition at 10 µM at ABHD12 [2] was in the range of 50 to 75%.
